Data on 17 compounds can be found in patent US20240246940A1, “HETEROARYL DERIVATIVE COMPOUND AND USE THEREOF” (VORONOI INC., priority 2021, published 2024).

Some results are limits rather than exact numbers.

What all share (assay type): cell-based
For assay [1], the system named is HaCaT cells (EGFR expressing cell line). Briefly: HaCaT cell proliferation inhibitory activity (CellTiter-Glo, 72 hours). The conditions noted are these: Homo sapiens. The method, boiled down:
(§1)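 GI50 derived from % growth versus control from CellTiter-Glo luminescence, each test run three times. SK-BR-3 and BT-474 are seeded 48 h ahead at 5000/well and dosed at 0.2 nM–10 μM. N-87 (5000/well) gets […]–5 μM and HaCaT (3000/well) gets 0.8 nM–45 μM, both seeded 24 h ahead.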
(In general: Cellular ATP, detected with luciferase, serves as a proxy for viable cell number.)

Assay [2] deals with BT-474 cells (HER2 overexpressing cell line). Briefly: BT-474 cell proliferation inhibitory activity (CellTiter-Glo, 120 hours). The conditions noted are these: Homo sapiens. A digest of the protocol:
as §1

For assay [3], the system named is SK-BR-3 cells (HER2 overexpressing cell line). The experiment in a line: SK-BR-3 cell proliferation inhibitory activity (CellTiter-Glo, 120 hours). As to conditions: Homo sapiens. A digest of the protocol:
as §1

Assay [4] has as its system N-87 cells (HER2 overexpressing cell line). The experiment in a line: N-87 cell proliferation inhibitory activity (CellTiter-Glo, 72 hours). The protocol: To evaluate the cell proliferation inhibitory activity of the compound according to the present invention on HER2 and EGFR kinases, the following method was performed using HER2 overexpressing cell lines (SK-BR-3, BT-474, and N-87) and EGFR expressing cell line (HaCaT).
McCOY'S 5A supplemented with 10% FBS was used for SK-BR-3 cells, RPMI-1640 medium supplemented with 20% FBS was used for BT-474 cancer cells, and RPMI-1640 medium supplemented with 10% FBS was used for N-87 cancer cells. DMEM supplemented with 10% FBS was used for HaCaT cells.
For SK-BR-3 cells, 5000 cells were aliquoted into each well of a white clear bottom 96 well plate (Corning) 48 hours before treatment with the compounds of Examples. For BT-474 cells, 5000 cells were aliquoted into each well of a white clear bottom 96 well plate (Corning) 48 hours before treatment with the compounds of Examples. For N-87 cells, 5000 cells were aliquoted into each well of a white clear bottom 96 well plate (Corning) 24 hours before treatment with the compounds of Examples. For HaCaT cells, 3000 cells were aliquoted into each well of a white clear bottom 96 well plate (Corning) 24 hours before treatment with the compounds of Examples. For SK-BR-3 cells and BT-474 cells, the compounds of Examples were diluted in dimethyl sulfoxide (three-fold dilution, a total of 11 concentrations) and injected each in an amount of 1 μl to a final concentration of 0.2 nM to 10 μM. For N-87 cells, the compounds of Examples were diluted in dimethyl sulfoxide (five-fold dilution, a total of 11 concentrations) and injected each in an amount of 0.5 μl to a final concentration of […] to 5 μM. For HaCaT cells, the compounds of Examples were diluted in dimethyl sulfoxide (three-fold dilution, a total of 11 concentrations) and injected each in an amount of 0.5 μl to a final concentration of 0.8 nM to 45 μM. For the measurement of living cells, the cells were stored at room temperature for 10 minutes using CellTiter-Glo cell viability reagent (Promega) after a certain period of time (SK-BR-3: 120 hours, BT-474: 120 hours, N-87: 72 hours, and HaCaT: 72 hours) post treatment with the compounds of Examples, and the luminescence intensity thereof was measured using a reader (SynergyNeo, Biotek). Each test was repeated three times.
The result values were calculated as a cell growth rate (%) compared to those of the control group. A graph was created using the GraphPad Prism version 5.0 program, and GI50 values were calculated.

On to `C=CC(=O)N1CC(Oc2cc3c(Nc4cc(-c5cccc(C#N)c5F)ccc4OC)ncnc3cc2OC)C1` [Example 21, 3'-((6-((1-acryloylazetidin-3-yl)oxy)-7-methoxy-quinazolin-4-yl)amino)-2-fluoro-4′-methoxy-[1,1′-biphenyl]-3-carbonitrile], for which the GI50 in assay [1], in assay [2], in assay [3] and in assay [4] was ≤ 150 nM in each case.

On to `C=CC(=O)N1CCC(Oc2cc3c(Nc4cc(-c5ccco5)c(F)cc4OC)ncnc3cc2OC)C(F)C1` (stereo not drawn) [Example 140, 1-(3-fluoro-4-((4-((4-fluoro-5-(furan-2-yl)-2-methoxyphenyl)amino)-7-methoxy-quinazolin-6-yl)oxy)piperidin-1-yl)prop-2-en-1-one], for which the GI50 in assay [1], in assay [2], in assay [3] and in assay [4] was ≤ 150 nM throughout.

As for `C=CC(=O)N1CCC(Nc2cc3c(Nc4cc(-c5ccc(F)cc5F)ccc4OC)ncnc3cc2OC)CC1` [Example 299, 1-(4-((4-((2′,4′-difluoro-4-methoxy-[1,1′-biphenyl]-3-yl)amino)-7-methoxyquinazolin-6-yl)amino)piperidin-1-yl)prop-2-en-1-one], the GI50 in assay [1], in assay [2], in assay [3] and in assay [4] was ≤ 150 nM throughout.

Take `C=CC(=O)N1CCC(Oc2cc3c(Nc4cc(-c5cccc(N(C)C)c5)ccc4OC)ncnc3cc2OC)CC1` [Example 151, 1-(4-((4-((3′-(dimethylamino)-4-methoxy-[1,1′-biphenyl]-3-yl)amino)-7-methoxy-quinazolin-6-yl)oxy)piperidin-1-yl)prop-2-en-1-one]: the GI50 (commonly the concentration giving 50% growth inhibition) in assay [1] is 150 to 1000 nM; in assay [2], ≤ 150 nM; in assay [3] it was ≤ 150 nM; in assay [4], ≤ 150 nM.

With `C=CC(=O)N1CCC(Oc2cc3c(Nc4cc(-c5ccc(F)cc5)ccc4OC)ncnc3cc2OC)CC1` [Example 67, 1-(4-((4-((4′-fluoro-4-methoxy-[1,1′-biphenyl]-3-yl)amino)-7-methoxy-quinazolin-6-yl)oxy)piperidin-1-yl)prop-2-en-1-one], the GI50 in assay [1] is 150 to 1000 nM; in assay [2], ≤ 150 nM; in assay [3], ≤ 150 nM; in assay [4], ≤ 150 nM.

For `C=CC(=O)N1CCC(Nc2cc3c(Nc4cc(-c5ccco5)ccc4OC)ncnc3cc2OCCCN2CCOCC2)CC1` [Example 278, 1-(4-((4-((5-(furan-2-yl)-2-methoxyphenyl)amino)-7-(3-morpholinopropoxy)quinazolin-6-yl)amino)piperidin-1-yl)prop-2-en-1-one], the GI50 in assay [1], in assay [2], in assay [3] and in assay [4] was ≤ 150 nM in each case.

`C=CC(=O)N1CCC(Nc2cc3c(Nc4cc(-c5ccco5)ccc4OC)ncnc3cc2OC2CCOC2)CC1` (stereo not drawn) [Example 270, 1-(4-((4-((5-(furan-2-yl)-2-methoxyphenyl)amino)-7-((tetrahydrofuran-3-yl)oxy)quinazolin-6-yl)amino)piperidin-1-yl)prop-2-en-1-one]: the GI50 in assay [1], in assay [2], in assay [3] and in assay [4] was ≤ 150 nM in each case.

As to `C=CC(=O)N1CCC(Oc2cc3c(Nc4cc(-c5cccc(C(F)(F)F)c5)ccc4OC)ncnc3cc2OC)CC1` [Example 139, 1-(4-((7-methoxy-4-((4-methoxy-3′-(trifluoromethyl)-[1,1′-biphenyl]-3-yl)amino)quinazolin-6-yl)oxy)piperidin-1-yl)prop-2-en-1-one], the GI50 in assay [1] was 150 to 1000 nM; in assay [2], ≤ 150 nM; in assay [3], ≤ 150 nM; in assay [4], ≤ 150 nM.

`C=CC(=O)N1CCC(Oc2cc3c(Nc4cc(-c5ccc(F)c(C(F)(F)F)c5)ccc4OC)ncnc3cc2OC)CC1` [Example 142, 1-(4-((4-((4′-fluoro-4-methoxy-3′-(trifluoromethyl)-[1,1′-biphenyl]-3-yl)amino)-7-methoxy-quinazolin-6-yl)oxy)piperidin-1-yl)prop-2-en-1-one]: the GI50 in assay [1] is 150 to 1000 nM; in assay [2], ≤ 150 nM; in assay [3] it was ≤ 150 nM; in assay [4], ≤ 150 nM.

Take `C=CC(=O)N1CCC(Oc2cc3c(Nc4cc(-c5cc(N)c(F)cc5C)ccc4OC)ncnc3cc2OC)CC1` [Example 161, 1-(4-((4-((5′-amino-4′-fluoro-4-methoxy-2′-methyl-[1,1′-biphenyl]-3-yl)amino)-7-methoxy-quinazolin-6-yl)oxy)piperidin-1-yl)prop-2-en-1-one]: the GI50 in assay [1], in assay [2], in assay [3] and in assay [4] was ≤ 150 nM in each case.

Take `C=CC(=O)N1CCC(Oc2cc3c(Nc4cc(-c5ccc(F)cc5F)ccc4OC4CC4)ncnc3cc2OC)CC1` [Example 260, 1-(4-((4-((4-cyclopropoxy-2′,4′-difluoro-[1,1′-biphenyl]-3-yl)amino)-7-methoxyquinazolin-6-yl)oxy)piperidin-1-yl)prop-2-en-1-one]: the GI50 in assay [1], in assay [2], in assay [3] and in assay [4] was ≤ 150 nM throughout.

For `C=CC(=O)N1CCC(Nc2cc3c(Nc4cc(-c5ccco5)ccc4OC)ncnc3cc2OC)CC1` [Example 298, 1-(4-((4-((5-(furan-2-yl)-2-methoxyphenyl)amino)-7-methoxyquinazolin-6-yl)amino)piperidin-1-yl)prop-2-en-1-one], the GI50 in assay [1], in assay [2], in assay [3] and in assay [4] was ≤ 150 nM each time.

Consider `C=CC(=O)N1CC(Oc2cc3c(Nc4cc(-c5ccccc5F)ccc4OC)ncnc3cc2OC)C1` [Example 24, 1-(3-((4-((2′-fluoro-4-methoxy-[1,1′-biphenyl]-3-yl)amino)-7-methoxy-quinazolin-6-yl)oxy)azetidin-1-yl)prop-2-en-1-one], for which the 50% growth inhibitory concentration (GI50) in assay [1], in assay [2], in assay [3] and in assay [4] was ≤ 150 nM in each case.

For `C=CC(=O)N1CC[C@@H](Oc2cc3c(Nc4cc(-c5ccc(F)cc5F)ccc4OC)ncnc3cc2OC)[C@H](F)C1` (relative stereo) [Example 171, 1-(trans-4-((4-((2′,4′-difluoro-4-methoxy-[1,1′-biphenyl]-3-yl)amino)-7-methoxy-quinazolin-6-yl)oxy)-3-fluoropiperidin-1-yl)prop-2-en-1-one], the concentration for 50% growth inhibition (GI50) in assay [1], in assay [2], in assay [3] and in assay [4] was ≤ 150 nM in each case.

On to `C=CC(=O)N1CC(Oc2cc3c(Nc4cc(-c5ccc(F)nc5)ccc4OC)ncnc3cc2OC)C1` [Example 22, 1-(3-( (4-((5-(6-fluoropyridin-3-yl)-2-methoxyphenyl)amino)-7-methoxy-quinazolin-6-yl)oxy)azetidin-1-yl)prop-2-en-1-one], for which the GI50 in assay [1], in assay [2], in assay [3] and in assay [4] was ≤ 150 nM throughout.

As to `C=CC(=O)N1CCC(Oc2cc3c(Nc4cc(-c5ccc(F)c(N)c5F)ccc4OC)ncnc3cc2OC)CC1` [Example 158, 1-(4-((4-((3′-amino-2′,4′-difluoro-4-methoxy-[1,1′-biphenyl]-3-yl)amino)-7-methoxy-quinazolin-6-yl)oxy)piperidin-1-yl)prop-2-en-1-one], the GI50 in assay [1], in assay [2] and in assay [4] was ≤ 150 nM in each case.

Regarding `C=CC(=O)N1CCC(Oc2cc3c(Nc4cc(-c5ccc(F)c(NC(C)=O)c5)ccc4OC)ncnc3cc2OC)CC1` [Example 226, N-(3′-((6-((1-acryloyl-piperidin-4-yl)oxy)-7-methoxy-quinazolin-4-yl)mino)-4-fluoro-4′-methoxy-[1,1'-biphenyl]-3-yl)acetamide], the concentration for 50% growth inhibition (GI50) in assay [1] was > 1000 nM; in assay [2] it was ≤ 150 nM; in assay [4], ≤ 150 nM.
